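At the GI50, growth is halved. TGI: total growth inhibition.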
Tests used:
Assay in all cases: NCI-60 cell line screen, 384-well format
[1] = system: 786-0 renal
[2] = system: A498 renal
[3] = system: A549 NSCLC
[4] = system: ACHN renal
[5] = system: DU-145 prostate
[6] = system: MOLT-4 leukemia
[7] = system: NCI-H226 lung
[8] = system: NCI-H522 lung
[9] = system: SF-295 CNS
[10] = system: SK-MEL-2 melanoma
[11] = system: SNB-75 CNS
[12] = system: UACC-62 melanoma
[13] = system: UO-31 renal

## FC(F)(F)c1ccc(CNc2ccc(Cc3c[nH]c4ncc(Cl)cc34)cn2)cn1
[1]
  GI50: 3.7 µM
  TGI: 10.7 µM
[2]
  GI50: 7.91 µM
  TGI: 19.1 µM
[3]
  GI50: 13.1 µM
  TGI: 26.2 µM
[4]
  GI50: 14.1 µM
  TGI: 30.7 µM
[5]
  GI50: 15.4 µM
  TGI: 29.1 µM
[6]
  GI50: 2.83 µM
  TGI: 9.58 µM
[7]
  GI50: 5.32 µM
  TGI: 16.3 µM
[8]
  GI50: 8.58 µM
  TGI: 21 µM
[9]
  GI50: 11.3 µM
  TGI: 23.7 µM
[10]
  GI50: 7.92 µM
  TGI: 20.4 µM
[11]
  GI50: 2.73 µM
  TGI: 8.45 µM
[12]
  GI50: 12.5 µM
  TGI: 25.3 µM
[13]
  GI50: 11.6 µM
  TGI: 23.9 µM

From PubChem BioAssay (NCI)
